Where two headings read alike, the source gives them in different places.
Columns and labels:
full-length human Cal1 = full-length human Cal1 (Homo sapiens (Human), UniProt P07384); experiment: Calpain inhibition FRET assay; format: biochemical
[1] = Plasma pharmacokinetics after i.p. administration; format: in vivo; conditions: ICR mice
Method: Plasma concentrations of 30a, 33 and 50 were determined by LC-MS/MS after i.p. administration to ICR mice. The plasma concentrations at each sampling time are shown on FIG. 10. […] Indeed, following i.p. administration of 30a (7.57 mg/kg), 33 (7.86 mg/kg) and 50 (7.83 mg/kg), the peak plasma concentration occurred at 0.25, 0.5 and 0.125 h after dosing, respectively. […] The respective half-lives were ˜0.6 hrs, ˜1.1 hrs and ˜0.6 hrs.

Aβ40 and Aβ42 = experiment: Effect on Aβ levels in APP/PS1 mice; format: in vivo; conditions: compound-treated vs vehicle-treated APP/PS1 transgenics
From the text: Increase of brain and plasma levels of Aβ and appearance of amyloid plaques is an important feature of AD.

[2] = test system: Aβ-induced LTP impairment; experiment: LTP rescue test; conditions: assessed at 650 nM
Method: Residual levels of potentiation were averaged during the last 5 min of LTP.

Chain of full-length human Cal1 (P07384 whole entry): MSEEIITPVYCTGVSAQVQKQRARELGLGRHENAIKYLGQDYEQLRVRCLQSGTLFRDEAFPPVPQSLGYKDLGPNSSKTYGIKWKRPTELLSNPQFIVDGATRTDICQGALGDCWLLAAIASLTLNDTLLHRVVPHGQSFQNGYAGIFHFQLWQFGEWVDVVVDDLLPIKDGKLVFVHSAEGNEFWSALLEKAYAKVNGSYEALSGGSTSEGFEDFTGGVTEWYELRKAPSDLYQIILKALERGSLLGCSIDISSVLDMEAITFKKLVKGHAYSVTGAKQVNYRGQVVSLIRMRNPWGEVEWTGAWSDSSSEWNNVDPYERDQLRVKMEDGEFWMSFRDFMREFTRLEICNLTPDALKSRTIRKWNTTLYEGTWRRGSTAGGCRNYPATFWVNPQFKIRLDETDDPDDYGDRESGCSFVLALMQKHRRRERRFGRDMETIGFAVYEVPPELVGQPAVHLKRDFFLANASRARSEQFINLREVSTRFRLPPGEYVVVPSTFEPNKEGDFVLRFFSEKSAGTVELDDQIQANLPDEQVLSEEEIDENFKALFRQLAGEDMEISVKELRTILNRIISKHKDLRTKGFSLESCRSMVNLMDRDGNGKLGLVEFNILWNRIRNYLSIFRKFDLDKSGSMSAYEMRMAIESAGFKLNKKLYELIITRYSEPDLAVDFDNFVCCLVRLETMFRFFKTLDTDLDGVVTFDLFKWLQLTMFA
Chain of full-length human Cal1 (P04632 whole entry partner): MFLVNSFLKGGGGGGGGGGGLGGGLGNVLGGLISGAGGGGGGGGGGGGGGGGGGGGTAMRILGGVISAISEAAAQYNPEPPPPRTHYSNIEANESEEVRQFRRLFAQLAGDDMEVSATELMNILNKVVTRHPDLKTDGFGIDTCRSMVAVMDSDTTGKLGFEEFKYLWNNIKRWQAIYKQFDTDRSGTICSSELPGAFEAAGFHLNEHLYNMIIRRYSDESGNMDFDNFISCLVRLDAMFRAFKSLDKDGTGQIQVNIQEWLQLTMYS

With `O=C(O)C1OC1C(=O)N[C@@H](Cc1cscn1)C(=O)Nc1nc(-c2ccc(F)cc2)cs1` (stereo in doubt) [Compound 33, (2S,3S)-3-((S)-1-(4-(4-fluorophenyl)thiazol-2-ylamino)-1-oxo-3-(thiazol-4-yl)propan-2-ylcarbamoyl)oxirane-2-carboxylic acid] the IC50 (full-length human Cal1; Cal1, values stated in text, read-out: IC50) was roughly 100 nM, the IC50 (full-length human Cal1; Table 2, approximate IC50, read-out: Cal I IC50) was 100 nM and the “time of peak plasma concentration” value ([1]; i.p., 30a 7.57, 33 7.86, 50 7.83 mg/kg) was 0.5 h. The half-life ([1]; mouse, ip, plasma) was roughly 1.1 h, the bioavailability ([1]; mouse, plasma, ip, after i.p. administration, read-out: absolute bioavailability) was 87.3% and the “Aβ40 and Aβ42 levels in hippocampi” value (Aβ40 and Aβ42) was “no difference was detected”. The “potency for LTP rescue compared with E64” value [2] was “surpassed E64”.
